Patent publication EP0238178B1, “Novel derivatives of erythromycylamine” (ELI LILLY AND COMPANY, priority 1986, dated 1987)
≈ marks a conversion by molar mass, not a printed value. Read-outs that look alike come from different tables or passages of the source.

Columns and labels:
[1] = test system: Escherichia coli EC14; assay: MIC, standard agar-dilution assay; format: cell-based; settings: read-out: MIC
[2] = test system: Streptococcus pneumoniae Park I; assay: MIC, standard agar-dilution assay; format: cell-based; settings: read-out: MIC
[3] = test system: Staphylococcus epidermidis 222; assay: MIC, standard agar-dilution assay; format: cell-based; settings: read-out: MIC
[4] = test system: Streptococcus pyogenes C203; assay: MIC, standard agar-dilution assay; format: cell-based; settings: read-out: MIC
[5] = test system: Staphylococcus aureus X400; assay: MIC, standard agar-dilution assay; format: cell-based
Source text: (§1) In addition to excellent in vitro activity against erythromycin-sensitive bacteria, several members of this new series have shown in vitro activity against erythromycin-resistant strains. These include strains which are inducibly-resistant to erythromycin (S.. aureus V41 and X400 and S. epidermidis EPI1) and even strains which are constitutively-resistant (S. epidermidis 270).

[6] = test system: Staphylococcus aureus V41; assay: MIC, standard agar-dilution assay; format: cell-based
Source text: as §1

[7] = test system: Staphylococcus epidermidis 270; assay: MIC, standard agar-dilution assay; format: cell-based; settings: Staphylococcus epidermidis 270, constitutively-resistant to erythromycin
Source text: as §1

[8] = test system: Staphylococcus aureus X1.1; assay: MIC, standard agar-dilution assay; format: cell-based; settings: read-out: MIC
[9] = test system: Streptococcus sp. group D X66; assay: MIC, standard agar-dilution assay; format: cell-based; settings: Streptococcus sp. group D X66; read-out: MIC
[10] = test system: Staphylococcus aureus S13E; assay: MIC, standard agar-dilution assay; format: cell-based
[11] = test system: Haemophilus influenzae C.L.; assay: MIC, standard agar-dilution assay; format: cell-based; settings: Ampicillin-sensitive strain, read-out: MIC
[12] = test system: Streptococcus sp. group D 2041; assay: MIC, standard agar-dilution assay; format: cell-based; settings: read-out: MIC
[13] = test system: Staphylococcus aureus; assay: Experimental bacterial infection in mice, ED50; format: in vivo; settings: Staphylococcus aureus, two doses, dose protecting 50% of animals
Method: (§2) The new derivatives of this invention have also shown in vivo antimicrobial activity against experimental bacterial infections. When two doses of test compound were administered to mice in experimental infections, the activity observed was measured as an EDso value [effective dose in mg/kg to protect 50% of the test animals: see Warren Wick, et al., J. Bacteriol. 81, 233-235 (1961)].

[14] = test system: Streptococcus pyogenes; assay: Experimental bacterial infection in mice, ED50; format: in vivo; settings: Streptococcus pyogenes, po, two doses, dose protecting 50% of animals, read-out: Oral ED50
Method: as §2

[15] = test system: Streptococcus pneumoniae; assay: Experimental bacterial infection in mice, ED50; format: in vivo; settings: Streptococcus pneumoniae, po, two doses, dose protecting 50% of animals, read-out: Oral ED50
Method: as §2

[16] = test system: Staphylococcus epidermidis EPI1; assay: MIC, standard agar-dilution assay; format: cell-based
Source text: as §1

[17] = test system: Haemophilus influenzae 76; assay: MIC, standard agar-dilution assay; format: cell-based; settings: Haemophilus influenzae 76, Ampicillin-resistant strain; read-out: MIC
[18] = test system: Klebsiella pneumoniae X68; assay: MIC, standard agar-dilution assay; format: cell-based; settings: read-out: MIC
[19] = Staphylococcus aureus X400, Methicillin-resistant strain, inducibly-resistant to erythromycin, read-out: MIC
[20] = Staphylococcus aureus V41, Penicillin-resistant strain, inducibly-resistant to erythromycin, read-out: MIC

Row | SMILES | MIC [1] [µg/mL] | MIC [2] [µg/mL] | MIC [3] [µg/mL] | MIC [4] [µg/mL] | MIC [5, 19] [µg/mL] | MIC [6, 20] [µg/mL] | MIC [7] [µg/mL] | MIC [8] [µg/mL] | MIC [9] [µg/mL] | MIC [10] [µg/mL] | MIC [11] [µg/mL] | MIC [12] [µg/mL] | ED50 [14] [mg/kg] | ED50 [15] [mg/kg] | also measured
1 | CCCCC/C=C\CCCN[C@@H]1[C@H](C)[C@@H](O)[C@](C)(O)[C@@H](CC)OC(=O)[C@H](C)[C@@H](O[C@H]2C[C@@](C)(OC)[C@@H](O)[C@H](C)O2)[C@H](C)[C@@H](O[C@@H]2O[C@H](C)C[C@H](N(C)C)[C@H]2O)[C@](C)(O)C[C@H]1C [Compound 13] | 128 (≈ 147 µM) | < 0.008 | 0.125 (≈ 0.143 µM) | < 0.008 | 8 (≈ 9.16 µM) | 8 (≈ 9.16 µM) | 32 (≈ 36.6 µM) | 0.25 (≈ 0.286 µM) | 0.06 (≈ 0.0687 µM) | 0.25 (≈ 0.286 µM) | 2 (≈ 2.29 µM) | 1 (≈ 1.15 µM) | – | – | –
2 | CC[C@H]1OC(=O)[C@H](C)[C@@H](O[C@H]2C[C@@](C)(OC)[C@@H](O)[C@H](C)O2)[C@H](C)[C@@H](O[C@@H]2O[C@H](C)C[C@H](N(C)C)[C@H]2O)[C@](C)(O)C[C@@H](C)[C@H](NCC#Cc2ccccc2)[C@H](C)[C@@H](O)[C@]1(C)O [Compound 18] | – | < 0.008 | 0.5 (≈ 0.589 µM) | < 0.008 | 32 (≈ 37.7 µM) | 16 (≈ 18.8 µM) | 64 (≈ 75.4 µM) | 1 (≈ 1.18 µM) | 0.25 (≈ 0.294 µM) | 0.5 (≈ 0.589 µM) | 4 (≈ 4.71 µM) | 1 (≈ 1.18 µM) | 26.7 | 33.9 | ED50 ([13]; po, read-out: Oral ED50): > 50 mg/kg
3 | CCCCC/C=C/CCCN[C@@H]1[C@H](C)[C@@H](O)[C@](C)(O)[C@@H](CC)OC(=O)[C@H](C)[C@@H](O[C@H]2C[C@@](C)(OC)[C@@H](O)[C@H](C)O2)[C@H](C)[C@@H](O[C@@H]2O[C@H](C)C[C@H](N(C)C)[C@H]2O)[C@](C)(O)C[C@H]1C [Compound 14, 9-Deoxo-9-[(trans-dec-4-enyl)amino]erythromycin] | 128 (≈ 147 µM) | < 0.008 | 0.25 (≈ 0.286 µM) | < 0.008 | 16 (≈ 18.3 µM) | 8 (≈ 9.16 µM) | 32 (≈ 36.6 µM) | 0.5 (≈ 0.573 µM) | 0.125 (≈ 0.143 µM) | 0.25 (≈ 0.286 µM) | 2 (≈ 2.29 µM) | 2 (≈ 2.29 µM) | – | – | –
4 | CC[C@H]1OC(=O)[C@H](C)[C@@H](O[C@H]2C[C@@](C)(OC)[C@@H](O)[C@H](C)O2)[C@H](C)[C@@H](O[C@@H]2O[C@H](C)C[C@H](N(C)C)[C@H]2O)[C@](C)(O)C[C@@H](C)[C@H]2[C@H](C)[C@@H](OCN2C(C)C)[C@]1(C)O [Compound 58, 9-Deoxo-9-[isopropylamino]-9,11-(N,O)-cyclic Methylene Adduct of Erythromycin] | 32 (≈ 40.6 µM) | 0.06 (≈ 0.076 µM) | 0.5 (≈ 0.634 µM) | 0.125 (≈ 0.158 µM) | – | – | – | 1 (≈ 1.27 µM) | 0.25 (≈ 0.317 µM) | 1 (≈ 1.27 µM) | 4 (≈ 5.07 µM) | 4 (≈ 5.07 µM) | 6.7 | 5.7 | MIC [16]: 128 µg/mL (≈ 162 µM); MIC ([5]; Staphylococcus aureus, X400): > 128 µg/mL; MIC ([6]; Staphylococcus aureus, V41): > 128 µg/mL; MIC [17]: 4 µg/mL (≈ 5.07 µM); ED50 ([13]; sc, subcutaneous, read-out: Subcutaneous ED50): > 10 mg/kg; MIC [18]: 64 µg/mL (≈ 81.1 µM)
